Literature values, collected in patent publication US9856441B2, “Soap bar” (COLGATE-PALMOLIVE COMPANY, priority 2013, dated 2018).

## NCCS(=O)(=O)O [taurine, 2-aminoethanesulfonic acid]
Room temperature
  maximum solubility of taurine in water: about 6 weight %
Taurine not in salt form
  solubility of taurine itself: up to 6%
